Experimental data published in patent US20230089867A1, “CYCLIC PENTAMER COMPOUNDS AS PROPROTEIN CONVERTASE SUBTILISIN/KEXIN TYPE 9 (PCSK9) INHIBITORS FOR THE TREATMENT OF METABOLIC DISORDER” (Novartis AG, priority 2018, published 2023).

Target: human PCSK9 (Homo sapiens, UniProt Q8NBP7)
Assay: PCSK9 ligand binding TR-FRET assay (interference with binding of human PCSK9 to human LDLR)
Settings: for Max % inhibition: PCSK9 FRET assay, efficacy (Amax), 100% = 1 uM unlabeled human PCSK9, 0% = DMSO; for IC50: TR-FRET, human PCSK9 Alexa Fluor 647 / human LDLR extracellular domain-Europium Kryptate, read-out: PCSK9 FRET Assay IC50
In short: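 Threefold compound dilutions were pre-incubated 30 min with PCSK9, after which 4 nM Europium Kryptate-tagged human LDLR ectodomain was added for a further 2 h.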

Sequence of human PCSK9 (Q8NBP7 153-692): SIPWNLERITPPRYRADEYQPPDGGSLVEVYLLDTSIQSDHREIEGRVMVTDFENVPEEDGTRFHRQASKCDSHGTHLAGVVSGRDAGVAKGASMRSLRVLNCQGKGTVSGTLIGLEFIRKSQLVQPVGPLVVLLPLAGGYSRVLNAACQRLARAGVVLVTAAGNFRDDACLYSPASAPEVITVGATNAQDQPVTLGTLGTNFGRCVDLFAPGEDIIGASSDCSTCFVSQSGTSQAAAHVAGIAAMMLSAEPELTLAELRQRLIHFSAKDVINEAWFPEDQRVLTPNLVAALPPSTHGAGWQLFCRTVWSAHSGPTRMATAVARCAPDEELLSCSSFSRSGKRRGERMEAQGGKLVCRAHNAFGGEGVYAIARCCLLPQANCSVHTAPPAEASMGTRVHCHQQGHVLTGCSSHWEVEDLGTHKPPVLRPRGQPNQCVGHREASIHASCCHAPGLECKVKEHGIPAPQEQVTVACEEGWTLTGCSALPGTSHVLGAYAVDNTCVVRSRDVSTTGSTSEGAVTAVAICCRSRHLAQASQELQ
Sequence of human PCSK9 (Q8NBP7 31-152 partner limits assumed): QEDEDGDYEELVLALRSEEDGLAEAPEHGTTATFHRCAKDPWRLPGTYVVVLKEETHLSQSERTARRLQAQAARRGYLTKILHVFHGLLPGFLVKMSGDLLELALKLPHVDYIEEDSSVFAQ

Row | Max % inhibition [%] | IC50 [nM] | Structure (SMILES)
1 | 59.45 | 4.8 | COCC(=O)N1CCn2c(nnc2-c2ccc(Oc3cc(Cl)ccc3CN3C(=O)C[C@@H](Cc4ccccc4)C(=O)N(C)[C@@H](C)CNC(=O)C[C@H](Cc4ccc(Cl)cc4)N(C)C(=O)[C@H](COC)NC(=O)[C@@H]3C)cc2)C1 [Compound 116, (2S,5S,8S,13S,16R)-16-benzyl-1-(4-chloro-2-(4-(7-(2-methoxyacetyl)-5,6,7,8-tetrahydro-[1,2,4]triazolo[4,3-a]pyrazin-3-yl)phenoxy)benzyl)-8-(4-chlorobenzyl)-5-(methoxymethyl)-2,7,13,14-tetramethyl-1,4,7,11,14-pentaazacyclooctadecane-3,6,10,15,18-pentaone]
2 | 67.25 | 4.2 | COCC(=O)N1CCc2ncc(-c3ccc(Oc4cc(Cl)ccc4CN4C(=O)C[C@@H](Cc5ccccc5)C(=O)N(C)[C@@H](C)CNC(=O)C[C@H](Cc5ccc(Cl)cc5)N(C)C(=O)[C@H](COC)NC(=O)[C@@H]4C)cc3)cc2C1 [Compound 117, (2S,5S,8S,13S,16R)-16-benzyl-1-(4-chloro-2-(4-(6-(2-methoxyacetyl)-5,6,7,8-tetrahydro-1,6-naphthyridin-3-yl)phenoxy)benzyl)-8-(4-chlorobenzyl)-5-(methoxymethyl)-2,7,13,14-tetramethyl-1,4,7,11,14-pentaazacyclooctadecane-3,6,10,15,18-pentaone]
3 | 65.13 | 24.6 | COC[C@@H]1NC(=O)[C@H](C)N(Cc2ccc(Cl)cc2Oc2cccc(C(=O)NC3CCN(C)CC3)c2)C(=O)C[C@@H](Cc2ccccc2)C(=O)N(C)[C@@H](C)CNC(=O)C[C@H](Cc2ccc(Cl)cc2)N(C)C1=O [Compound 118, 3-(2-(((2S,5S,8S,13S,16R)-16-benzyl-8-(4-chlorobenzyl)-5-(methoxymethyl)-2,7,13,14-tetramethyl-3,6,10,15,18-pentaoxo-1,4,7,11,14-pentaazacyclooctadecan-1-yl)methyl)-5-chlorophenoxy)-N-(1-methylpiperidin-4-yl)benzamide]
4 | 48.04 | 23.6 | CCN(CC)Cc1cn(-c2ccc(Oc3cc(Cl)ccc3CN3C(=O)C[C@@H](Cc4ccccc4)C(=O)N(C)[C@@H](C)CNC(=O)C[C@H](Cc4ccc(Cl)cc4)N(C)C(=O)[C@H](COC)NC(=O)[C@@H]3C)cc2)nn1 [Compound 120, (2S,5S,8S,13S,16R)-16-benzyl-1-(4-chloro-2-(4-(4-((diethylamino)methyl)-1H-1,2,3-triazol-1-yl)phenoxy)benzyl)-8-(4-chlorobenzyl)-5-(methoxymethyl)-2,7,13,14-tetramethyl-1,4,7,11,14-pentaazacyclooctadecane-3,6,10,15,18-pentaone]
5 | 60.93 | 28 | C[C@H]1CNC(=O)C[C@H](Cc2ccc(Cl)cc2)N(C)C(=O)[C@H](CO)NC(=O)[C@H](C)N(Cc2ccc(Cl)cc2Oc2ccc3c(c2)C(=O)N(C2CCNCC2)C3)C(=O)C[C@@H](Cc2ccccc2)C(=O)N1C [Compound 125, (2S,5S,8S,13S,16R)-16-benzyl-1-(4-chloro-2-((3-oxo-2-(piperidin-4-yl)isoindolin-5-yl)oxy)benzyl)-8-(4-chlorobenzyl)-5-(hydroxymethyl)-2,7,13,14-tetramethyl-1,4,7,11,14-pentaazacyclooctadecane-3,6,10,15,18-pentaone]
6 | 101.12 | 1.5 | COC[C@@H]1NC(=O)[C@H](C)N(Cc2ccc(Cl)cc2Oc2ccc(-c3cnc(CN(C)C)n3C)cc2)C(=O)C[C@@H](Cc2ccccc2)C(=O)N(C)[C@@H](C)CNC(=O)C[C@H](Cc2ccc(Cl)cc2)N(C)C1=O [Compound 126, (2S,5S,8S,13S,16R)-16-benzyl-1-(4-chloro-2-(4-(2-((dimethylamino)methyl)-1-methyl-1H-imidazol-5-yl)phenoxy)benzyl)-8-(4-chlorobenzyl)-5-(methoxymethyl)-2,7,13,14-tetramethyl-1,4,7,11,14-pentaazacyclooctadecane-3,6,10,15,18-pentaone]
7 | 55.01 | 7.8 | COC[C@@H]1NC(=O)[C@H](C)N(Cc2ccc(Cl)cc2Oc2ccc(-n3cc(CN4CCCC4)nn3)cc2)C(=O)C[C@@H](Cc2ccccc2)C(=O)N(C)[C@@H](C)CNC(=O)C[C@H](Cc2ccc(Cl)cc2)N(C)C1=O [Compound 127, (2S,5S,8S,13S,16R)-16-benzyl-1-(4-chloro-2-(4-(4-(pyrrolidin-1-ylmethyl)-1H-1,2,3-triazol-1-yl)phenoxy)benzyl)-8-(4-chlorobenzyl)-5-(methoxymethyl)-2,7,13,14-tetramethyl-1,4,7,11,14-pentaazacyclooctadecane-3,6,10,15,18-pentaone]
8 | 51.35 | 20.4 | COC[C@@H]1NC(=O)[C@H](C)N(Cc2ccc(Cl)cc2Oc2ccc(-n3cc(CN4CCCCC4)nn3)cc2)C(=O)C[C@@H](Cc2ccccc2)C(=O)N(C)[C@@H](C)CNC(=O)C[C@H](Cc2ccc(Cl)cc2)N(C)C1=O [Compound 128, (2S,5S,8S,13S,16R)-16-benzyl-1-(4-chloro-2-(4-(4-(piperidin-1-ylmethyl)-1H-1,2,3-triazol-1-yl)phenoxy)benzyl)-8-(4-chlorobenzyl)-5-(methoxymethyl)-2,7,13,14-tetramethyl-1,4,7,11,14-pentaazacyclooctadecane-3,6,10,15,18-pentaone]
9 | 94.48 | 6.3 | COC[C@@H]1NC(=O)[C@H](C)N(Cc2ccc(Cl)cc2Oc2ccc(-c3nnc4n3CCN(C(=O)[C@@H]3CCNC3)C4)cc2)C(=O)C[C@@H](Cc2ccccc2)C(=O)N(C)[C@@H](C)CNC(=O)C[C@H](Cc2ccc(Cl)cc2)N(C)C1=O [Compound 129, (2S,5S,8S,13S,16R)-16-benzyl-1-(4-chloro-2-(4-(7-((R)-pyrrolidine-3-carbonyl)-5,6,7,8-tetrahydro-[1,2,4]triazolo[4,3-a]pyrazin-3-yl)phenoxy)benzyl)-8-(4-chlorobenzyl)-5-(methoxymethyl)-2,7,13,14-tetramethyl-1,4,7,11,14-pentaazacyclooctadecane-3,6,10,15,18-pentaone]
10 | 77.42 | 20.3 | C[C@H]1CNC(=O)C[C@H](Cc2ccc(Cl)cc2)N(C)C(=O)[C@H](CO)NC(=O)[C@H](C)N(Cc2ccc(Cl)cc2Oc2ccc3c(c2)C(=O)N(C2CCN(C)CC2)C3)C(=O)C[C@@H](Cc2ccccc2)C(=O)N1C [Compound 130, (2S,5S,8S,13S,16R)-16-benzyl-1-(4-chloro-2-((2-(1-methylpiperidin-4-yl)-3-oxoisoindolin-5-yl)oxy)benzyl)-8-(4-chlorobenzyl)-5-(hydroxymethyl)-2,7,13,14-tetramethyl-1,4,7,11,14-pentaazacyclooctadecane-3,6,10,15,18-pentaone]

Row | Structure (SMILES) | Max % inhibition [%] | IC50 [nM]
11 | COC[C@@H]1NC(=O)[C@H](C)N(Cc2ccc(Cl)cc2Oc2ccc(-c3cnc4n3CCNC4)cc2)C(=O)C[C@@H](Cc2ccccc2)C(=O)N(C)[C@@H](C)CNC(=O)C[C@H](Cc2ccc(Cl)cc2)N(C)C1=O.O=C(O)C(F)(F)F [Compound 121, (2S,5S,8S,13S,16R)-16-benzyl-1-(4-chloro-2-(4-(5,6,7,8-tetrahydroimidazo[1,2-a]pyrazin-3-yl)phenoxy)benzyl)-8-(4-chlorobenzyl)-5-(methoxymethyl)-2,7,13,14-tetramethyl-1,4,7,11,14-pentaazacyclooctadecane-3,6,10,15,18-pentaone trifluoroacetate] | 59.89 | 2.8
12 | COC[C@@H]1NC(=O)[C@H](C)N(Cc2ccc(Cl)cc2Oc2ccc(-c3ccc(C(=O)NC4CCNCC4)nc3)cc2)C(=O)C[C@@H](Cc2ccccc2)C(=O)N(C)[C@@H](C)CNC(=O)C[C@H](Cc2ccc(Cl)cc2)N(C)C1=O.O=C(O)C(F)(F)F [Compound 122, 5-(4-(2-(((2S,5S,8S,13S,16R)-16-benzyl-8-(4-chlorobenzyl)-5-(methoxymethyl)-2,7,13,14-tetramethyl-3,6,10,15,18-pentaoxo-1,4,7,11,14-pentaazacyclooctadecan-1-yl)methyl)-5-chlorophenoxy)phenyl)-N-(piperidin-4-yl)picolinamide trifluoroacetate] | 55.05 | 8.7
13 | COC[C@@H]1NC(=O)[C@H](C)N(Cc2ccc(Cl)cc2Oc2ccc(-c3cnc4n3CCN(C(C)C)C4)cc2)C(=O)C[C@@H](Cc2ccccc2)C(=O)N(C)[C@@H](C)CNC(=O)C[C@H](Cc2ccc(Cl)cc2)N(C)C1=O.O=C(O)C(F)(F)F [Compound 123, (2S,5S,8S,13S,16R)-16-benzyl-1-(4-chloro-2-(4-(7-isopropyl-5,6,7,8-tetrahydroimidazo[1,2-a]pyrazin-3-yl)phenoxy)benzyl)-8-(4-chlorobenzyl)-5-(methoxymethyl)-2,7,13,14-tetramethyl-1,4,7,11,14-pentaazacyclooctadecane-3,6,10,15,18-pentaone trifluoroacetate] | 74.19 | 3.4
14 | COC[C@@H]1NC(=O)[C@H](C)N(Cc2ccc(Cl)cc2Oc2ccc(-c3cnc4n3CCN(C(=O)C3CCNC3)C4)cc2)C(=O)C[C@@H](Cc2ccccc2)C(=O)N(C)[C@@H](C)CNC(=O)C[C@H](Cc2ccc(Cl)cc2)N(C)C1=O.O=C(O)C(F)(F)F (stereo partly drawn) [Compound 124, (2S,5S,8S,13S,16R)-16-benzyl-1-(4-chloro-2-(4-(7-(pyrrolidine-3-carbonyl)-5,6,7,8-tetrahydroimidazo[1,2-a]pyrazin-3-yl)phenoxy)benzyl)-8-(4-chlorobenzyl)-5-(methoxymethyl)-2,7,13,14-tetramethyl-1,4,7,11,14-pentaazacyclooctadecane-3,6,10,15,18-pentaone trifluoroacetate] | 100.50 | 3.8
